Values of other authors in patent US10155776B2, “Method for selective detection and estimation of histidine and cystein” (Council of Scientific and Industrial Research, priority 2014, dated 2018).

pKa value of the thiol group in the side chain	SMILES
9.20	N[C@@H](CCC(=O)N[C@@H](CS)C(=O)NCC(=O)O)C(=O)O [glutathione]
8.87	N[C@@H](CCS)C(=O)O [homocysteine]
